From PubChem BioAssay AID248 (DTP/NCI, 2004) come the findings set out here.

The test system of the assay is L1210 leukemia ip in BDF1 mice, survival T/C. As to the kind of experiment: NCI In Vivo Anticancer Drug Screen. Data for tumor model L1210 Leukemia (intraperitoneal) in B6D2F1 (BDF1) mice. The conditions noted are these: endpoint: mean survival time, higher = longer survival. Summed up:
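Tumor was transplanted into mice, which were then dosed with test compound or vehicle alone. Survival was recorded for each group, and the treated figure was expressed relative to the control figure.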

Setting [1] is: dose: 100.0 mg/kg/injection, schedule: Q04DX002 (ip), vehicle: Klucel (hydroxypropylcellulose) (HPC).
The mark [2] stands for this setting: dose: 100.0 mg/kg/injection, schedule: Q04DX003 (ip), vehicle: saline with Tween-80.
Setting [3] is: dose: 200.0 mg/kg/injection, schedule: Q04DX003 (ip), vehicle: saline with Tween-80.
The mark [4] stands for this setting: dose: 400.0 mg/kg/injection, schedule: Q04DX003 (ip), vehicle: saline with Tween-80.
Where [5] appears, read: dose: 100.0 mg/kg/injection, schedule: Q01DX009 (ip), vehicle: Klucel (hydroxypropylcellulose) (HPC).
[6] abbreviates: dose: 200.0 mg/kg/injection, schedule: Q01DX009 (ip), vehicle: Klucel (hydroxypropylcellulose) (HPC).
Setting [7] is: dose: 400.0 mg/kg/injection, schedule: Q01DX009 (ip), vehicle: Klucel (hydroxypropylcellulose) (HPC).
[8] abbreviates: dose: 200.0 mg/kg/injection, schedule: Q04DX002 (ip), vehicle: Klucel (hydroxypropylcellulose) (HPC).
The mark [9] stands for this setting: dose: 400.0 mg/kg/injection, schedule: Q04DX002 (ip), vehicle: Klucel (hydroxypropylcellulose) (HPC).
Where [10] appears, read: dose: 50.0 mg/kg/injection, schedule: Q01DX001 (ip), vehicle: saline.
The mark [11] stands for this setting: dose: 100.0 mg/kg/injection, schedule: Q01DX001 (ip), vehicle: saline.
[12] abbreviates: dose: 100.0 mg/kg/injection, schedule: Q04DX003 (ip), vehicle: Klucel (hydroxypropylcellulose) (HPC).
Setting [13] is: dose: 200.0 mg/kg/injection, schedule: Q04DX003 (ip), vehicle: Klucel (hydroxypropylcellulose) (HPC).
Where [14] appears, read: dose: 25.0 mg/kg/injection, schedule: Q04DX003 (ip), vehicle: Klucel (hydroxypropylcellulose) (HPC).

Structures are written as SMILES. “And” between values parts separate entries of the source, which are not always exact repeats. Identical values can stand only once. Toxic doses and inconclusive results are not listed.

Take `CC(=O)OCCOc1ccc(Cl)cc1`: the T/C was 107 % of control (dose: 100.0 mg/kg/injection, schedule: Q04DX002 (ip), vehicle: saline); 96 % of control (dose: 200.0 mg/kg/injection, schedule: Q04DX002 (ip), vehicle: saline); 107 % of control (dose: 400.0 mg/kg/injection, schedule: Q04DX002 (ip), vehicle: saline).

Turning to `O=C1N(c2cc([N+](=O)[O-])ccc2F)C(=O)C(F)(F)C1(F)F`, the T/C reads like this: (dose: 100.0 mg/kg/injection, schedule: Q01DX001 (ip), vehicle: saline with Tween-80) 102 % of control; (dose: 200.0 mg/kg/injection, schedule: Q01DX001 (ip), vehicle: saline with Tween-80) 97 % of control.

Regarding `Nc1ncnc2nc(-c3ccccc3)[nH]c12`, the T/C is 102 % of control (dose: 25.0 mg/kg/injection, schedule: Q04DX002 (ip), vehicle: Klucel (hydroxypropylcellulose) (HPC)); 94 % of control (dose: 50.0 mg/kg/injection, schedule: Q04DX002 (ip), vehicle: Klucel (hydroxypropylcellulose) (HPC)); 91 % of control under setting [1].

In the case of `C=CCS(=O)(=O)c1ccccc1`, the T/C was 106 % of control (dose: 100.0 mg/kg/injection, schedule: Q01DX009 (ip), vehicle: saline); 98 % of control (dose: 200.0 mg/kg/injection, schedule: Q01DX009 (ip), vehicle: saline); 101 % of control (dose: 400.0 mg/kg/injection, schedule: Q01DX009 (ip), vehicle: saline).

With `O=[N+]([O-])/C=C/c1ccc(F)cc1`, the T/C (dose: 75.0 mg/kg/injection, schedule: Q01DX001 (ip), vehicle: alcohol) is 100 % of control.

For `CCOC(=O)C(O)(NC(=O)N/N=C/c1ccccc1)C(=O)OCC`, the T/C runs as follows: (dose: 100.0 mg/kg/injection, schedule: Q01DX009 (ip), vehicle: saline with Tween-80) 101 % of control; under setting [2], 106 % of control; (dose: 200.0 mg/kg/injection, schedule: Q01DX009 (ip), vehicle: saline with Tween-80) 92 % of control; under setting [3], 104 % of control; (dose: 400.0 mg/kg/injection, schedule: Q01DX009 (ip), vehicle: saline with Tween-80) 93 % of control; under setting [4], 101 % of control.

On to `O=C(NCCCCCCNC(=O)Nc1cccc(C(F)(F)F)c1)Nc1cccc(C(F)(F)F)c1`, for which the T/C runs as follows: under setting [5], 97 % of control; under setting [6], 92 % of control; under setting [7], 92 % of control.

Turning to `CCCCCCCCCCCCCC(O)CC(=O)O` (stereo not drawn), the T/C is, setting by setting: under setting [1], 91 % of control; under setting [8], 91 % of control; under setting [9], 104 % of control.

For `ClCCN(CCCl)c1ccc(C=Nc2cc(Cl)ccc2-n2ccnc2)c(Cl)c1`, the T/C is, setting by setting: under setting [1], 98 % of control; under setting [8], 95 % of control; under setting [9], 98 % of control.

Turning to `CCCCCCCCCCCCCCC[As](=O)(O)CCCCCCCCCCCCCCC`, the T/C is, setting by setting: under setting [10], 97 % of control; under setting [11], 95 % of control; (dose: 200.0 mg/kg/injection, schedule: Q01DX001 (ip), vehicle: saline) 95 % of control; (dose: 400.0 mg/kg/injection, schedule: Q01DX001 (ip), vehicle: saline) 95 % of control.

Regarding `CC/C(=C/c1ccc2c(c1)OCO2)[N+](=O)[O-]`, the T/C (dose: 25.0 mg/kg/injection, schedule: Q01DX001 (ip), vehicle: saline) was 100 % of control; the T/C under setting [10] is 100 % of control; the T/C under setting [11] was 100 % of control.

Consider `Nc1ccc(S(=O)(=O)Nc2ccc(C(=O)O)cc2)cc1`, for which the T/C is 98 % of control under setting [2], 98 % of control under setting [3] and 98 % of control under setting [4].

Turning to `Cn1c(=O)c2ccc[n+]([O-])c2n(C)c1=O`, the T/C by setting is: under setting [5], 101 % of control; under setting [12], 103 % of control; under setting [6], 108 % of control; under setting [13], 96 % of control; under setting [7], 105 % of control; (dose: 400.0 mg/kg/injection, schedule: Q04DX003 (ip), vehicle: Klucel (hydroxypropylcellulose) (HPC)) 107 % of control.

Consider `ClC1=CCCCC1`, for which the T/C is, setting by setting: (dose: 25.0 mg/kg/injection, schedule: Q01DX009 (ip), vehicle: acetone) 95 % of control; (dose: 50.0 mg/kg/injection, schedule: Q01DX009 (ip), vehicle: acetone) 101 % of control; (dose: 100.0 mg/kg/injection, schedule: Q01DX009 (ip), vehicle: acetone) 100 % of control.

As to `NC(CSCc1ccc(N(CCCl)CCCl)cc1)C(=O)O` (stereo not drawn), the T/C is 124 % of control (dose: 2.5 mg/kg/injection, schedule: Q01DX Z (ip), vehicle: carboxymethylcellulose (CMC)); 112 % of control (dose: 4.0 mg/kg/injection, schedule: Q01DX Z (ip), vehicle: other); 109 % of control (dose: 7.0 mg/kg/injection, schedule: Q01DX009 (ip), vehicle: saline); 111 % of control (dose: 7.0 mg/kg/injection, schedule: Q01DX Z (ip), vehicle: saline); 87 % of control (dose: 10.0 mg/kg/injection, schedule: Q01DX001 (ip), vehicle: carboxymethylcellulose (CMC)); 157 % of control (dose: 10.0 mg/kg/injection, schedule: Q01DX Z (ip), vehicle: carboxymethylcellulose (CMC)). In addition, the T/C (dose: 11.0 mg/kg/injection, schedule: Q01DX009 (ip), vehicle: saline) is 103 % of control; the T/C (dose: 11.0 mg/kg/injection, schedule: Q01DX Z (ip), vehicle: saline) is 118 % of control; the T/C (dose: 16.0 mg/kg/injection, schedule: Q01DX009 (ip), vehicle: saline) is 111 % of control; the T/C (dose: 16.0 mg/kg/injection, schedule: Q01DX Z (ip), vehicle: saline) is 114 % of control; the T/C (dose: 20.0 mg/kg/injection, schedule: Q01DX Z (ip), vehicle: carboxymethylcellulose (CMC)) was 152 % of control and 168 % of control; the T/C (dose: 24.0 mg/kg/injection, schedule: Q01DX009 (ip), vehicle: saline) was 103 % of control. Further, the T/C is 124 % of control (dose: 24.0 mg/kg/injection, schedule: Q01DX Z (ip), vehicle: saline); 123 % of control (dose: 30.0 mg/kg/injection, schedule: Q01DX Z (ip), vehicle: other); 113 % of control (dose: 32.0 mg/kg/injection, schedule: Q01DX009 (ip), vehicle: saline); 95 % of control (dose: 40.0 mg/kg/injection, schedule: Q01DX001 (ip), vehicle: carboxymethylcellulose (CMC)); 100 % of control (dose: 40.0 mg/kg/injection, schedule: Q01DX Z (ip), vehicle: carboxymethylcellulose (CMC)); 91 % of control (dose: 80.0 mg/kg/injection, schedule: Q01DX001 (ip), vehicle: carboxymethylcellulose (CMC)).

As to `CCCC[P+](CCCC)(CCCC)Cc1ccccc1`, the T/C (dose: 5.0 mg/kg/injection, schedule: Q01DX001 (ip), vehicle: saline) is 100 % of control; the T/C (dose: 10.0 mg/kg/injection, schedule: Q01DX001 (ip), vehicle: saline) is 119 % of control; the T/C (dose: 12.5 mg/kg/injection, schedule: Q04DX003 (ip), vehicle: Klucel (hydroxypropylcellulose) (HPC)) was 104 % of control; the T/C (dose: 20.0 mg/kg/injection, schedule: Q01DX001 (ip), vehicle: saline) is 98 % of control; the T/C under setting [14] was 104 % of control; the T/C (dose: 40.0 mg/kg/injection, schedule: Q01DX001 (ip), vehicle: saline) was 96 % of control.

Take `CCCCCCCCCCCCCCCCNC(=S)Nc1ccc(C(=O)O)cc1`: the T/C is 94 % of control (dose: 12.0 mg/kg/injection, schedule: Q04DX003 (ip), vehicle: Klucel (hydroxypropylcellulose) (HPC)); 104 % of control under setting [14]; 102 % of control (dose: 50.0 mg/kg/injection, schedule: Q04DX003 (ip), vehicle: Klucel (hydroxypropylcellulose) (HPC)); 95 % of control (dose: 100.0 mg/kg/injection, schedule: Q01DX001 (ip), vehicle: Klucel (hydroxypropylcellulose) (HPC)); 96 % of control under setting [12]; 101 % of control (dose: 200.0 mg/kg/injection, schedule: Q01DX001 (ip), vehicle: Klucel (hydroxypropylcellulose) (HPC)). The T/C is, setting by setting: under setting [13], 93 % of control; (dose: 400.0 mg/kg/injection, schedule: Q01DX001 (ip), vehicle: Klucel (hydroxypropylcellulose) (HPC)) 105 % of control.
